# Data from PubChem BioAssay (NCI).
#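 These data come from cells grown in 96-well plates and exposed to compound for 48 hours at five concentrations. Abbreviation: GI50, concentration required for 50% inhibition of growth. TGI: concentration producing complete growth inhibition.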
# How the values were obtained:
# Assay in all cases: DTP human tumour cell line panel, 48 h
# 786-0 renal = tested on: 786-0 renal
# A498 renal = tested on: A498 renal
# A549 NSCLC = tested on: A549 NSCLC
# ACHN renal = tested on: ACHN renal
# BT-549 breast = tested on: BT-549 breast
# CAKI-1 renal = tested on: CAKI-1 renal
# CCRF-CEM leukemia = tested on: CCRF-CEM leukemia
# COLO 205 colon = tested on: COLO 205 colon
# DU-145 prostate = tested on: DU-145 prostate
# EKVX NSCLC = tested on: EKVX NSCLC
# HCC-2998 colon = tested on: HCC-2998 colon
# HCT-116 colon = tested on: HCT-116 colon
# HCT-15 colon = tested on: HCT-15 colon
# HL-60(TB) leukemia = tested on: HL-60(TB) leukemia
# HOP-62 NSCLC = tested on: HOP-62 NSCLC
# HOP-92 NSCLC = tested on: HOP-92 NSCLC
# HS 578T breast = tested on: HS 578T breast
# HT29 colon = tested on: HT29 colon
# IGROV1 ovarian = tested on: IGROV1 ovarian
# K-562 leukemia = tested on: K-562 leukemia
# KM12 colon = tested on: KM12 colon
# LOX IMVI melanoma = tested on: LOX IMVI melanoma
# M14 melanoma = tested on: M14 melanoma
# MALME-3M melanoma = tested on: MALME-3M melanoma
# MCF7 breast = tested on: MCF7 breast
# MDA-MB-231 breast = tested on: MDA-MB-231 breast
# MDA-MB-435 = tested on: MDA-MB-435
# MDA-MB-468 breast = tested on: MDA-MB-468 breast
# NCI-H226 lung = tested on: NCI-H226 lung
# NCI-H23 lung = tested on: NCI-H23 lung
# NCI-H460 lung = tested on: NCI-H460 lung
# NCI-H522 lung = tested on: NCI-H522 lung
# NCI/ADR-RES ovarian = tested on: NCI/ADR-RES ovarian
# OVCAR-3 ovarian = tested on: OVCAR-3 ovarian
# OVCAR-4 ovarian = tested on: OVCAR-4 ovarian
# OVCAR-5 ovarian = tested on: OVCAR-5 ovarian
# OVCAR-8 ovarian = tested on: OVCAR-8 ovarian
# PC-3 prostate = tested on: PC-3 prostate
# RPMI-8226 leukemia = tested on: RPMI-8226 leukemia
# RXF 393 renal = tested on: RXF 393 renal
# SF-268 CNS = tested on: SF-268 CNS
# SF-295 CNS = tested on: SF-295 CNS
# SF-539 CNS = tested on: SF-539 CNS
# SK-MEL-2 melanoma = tested on: SK-MEL-2 melanoma
# SK-MEL-28 melanoma = tested on: SK-MEL-28 melanoma
# SK-MEL-5 melanoma = tested on: SK-MEL-5 melanoma
# SK-OV-3 ovarian = tested on: SK-OV-3 ovarian
# SN12C renal = tested on: SN12C renal
# SNB-19 CNS = tested on: SNB-19 CNS
# SNB-75 CNS = tested on: SNB-75 CNS
# SR leukemia = tested on: SR leukemia
# SW-620 colon = tested on: SW-620 colon
# T-47D breast = tested on: T-47D breast
# TK-10 renal = tested on: TK-10 renal
# U251 CNS = tested on: U251 CNS
# UACC-257 melanoma = tested on: UACC-257 melanoma
# UACC-62 melanoma = tested on: UACC-62 melanoma
# UO-31 renal = tested on: UO-31 renal
compound,measurement,setting,value
CC/C(=C(/c1ccc(O)cc1)c1ccc(OCCN(C)C(=O)COCCOCCNC(=O)Cc2ccc3c(c2)CN([C@@H]2CCC(=O)NC2=O)C3=O)cc1)c1ccccc1,GI50,786-0 renal,25.6 µM
same,TGI,786-0 renal,> 100 µM
same,GI50,A498 renal,> 100 µM
same,TGI,A498 renal,> 100 µM
same,GI50,A549 NSCLC,> 34.7 µM
same,TGI,A549 NSCLC,> 100 µM
same,GI50,ACHN renal,> 100 µM
same,TGI,ACHN renal,> 100 µM
same,GI50,BT-549 breast,0.0554 µM
same,TGI,BT-549 breast,0.509 µM
same,GI50,CAKI-1 renal,> 26.8 µM
same,TGI,CAKI-1 renal,> 100 µM
same,GI50,CCRF-CEM leukemia,0.132 µM
same,TGI,CCRF-CEM leukemia,> 100 µM
same,GI50,COLO 205 colon,0.702 µM
same,TGI,COLO 205 colon,8.99 µM
same,GI50,DU-145 prostate,> 53 µM
same,TGI,DU-145 prostate,> 100 µM
same,TGI,EKVX NSCLC,> 100 µM
same,GI50,HCC-2998 colon,2.16 µM
same,TGI,HCC-2998 colon,> 35.3 µM
same,GI50,HCT-116 colon,> 46.9 µM
same,TGI,HCT-116 colon,> 84 µM
same,GI50,HCT-15 colon,> 28 µM
same,TGI,HCT-15 colon,> 100 µM
same,GI50,HL-60(TB) leukemia,< 0.0208 µM
same,GI50,HOP-62 NSCLC,1.12 µM
same,TGI,HOP-62 NSCLC,10.1 µM
same,GI50,HOP-92 NSCLC,0.0677 µM
same,TGI,HOP-92 NSCLC,1.8 µM
same,GI50,HS 578T breast,0.427 µM
same,TGI,HS 578T breast,> 25.2 µM
same,GI50,HT29 colon,> 29.8 µM
same,TGI,HT29 colon,> 100 µM
same,GI50,IGROV1 ovarian,0.166 µM
same,TGI,IGROV1 ovarian,> 24.8 µM
same,GI50,K-562 leukemia,7.91 µM
same,TGI,K-562 leukemia,> 100 µM
same,GI50,KM12 colon,2.98 µM
same,TGI,KM12 colon,> 47.3 µM
same,GI50,LOX IMVI melanoma,> 37.1 µM
same,TGI,LOX IMVI melanoma,> 59.9 µM
same,GI50,M14 melanoma,7.95 µM
same,TGI,M14 melanoma,> 100 µM
same,GI50,MALME-3M melanoma,0.112 µM
same,TGI,MALME-3M melanoma,1.01 µM
same,GI50,MCF7 breast,< 0.0192 µM
same,TGI,MCF7 breast,> 40 µM
same,GI50,MDA-MB-231 breast,0.0438 µM
same,TGI,MDA-MB-231 breast,0.173 µM
same,GI50,MDA-MB-435,15.7 µM
same,TGI,MDA-MB-435,> 50.7 µM
same,GI50,MDA-MB-468 breast,< 0.0167 µM
same,TGI,MDA-MB-468 breast,0.214 µM
same,GI50,NCI-H226 lung,1.68 µM
same,TGI,NCI-H226 lung,> 44.4 µM
same,GI50,NCI-H23 lung,> 40.6 µM
same,TGI,NCI-H23 lung,> 68.9 µM
same,GI50,NCI-H460 lung,> 56.7 µM
same,TGI,NCI-H460 lung,> 100 µM
same,GI50,NCI-H522 lung,> 33.1 µM
same,TGI,NCI-H522 lung,> 53.1 µM
same,GI50,NCI/ADR-RES ovarian,> 100 µM
same,TGI,NCI/ADR-RES ovarian,> 100 µM
same,GI50,OVCAR-3 ovarian,10.3 µM
same,TGI,OVCAR-3 ovarian,> 53 µM
same,GI50,OVCAR-4 ovarian,13.6 µM
same,TGI,OVCAR-4 ovarian,> 100 µM
same,GI50,OVCAR-5 ovarian,13 µM
same,TGI,OVCAR-5 ovarian,> 100 µM
same,GI50,OVCAR-8 ovarian,0.939 µM
same,TGI,OVCAR-8 ovarian,> 100 µM
same,GI50,PC-3 prostate,0.407 µM
same,TGI,PC-3 prostate,> 100 µM
same,GI50,RPMI-8226 leukemia,3.35 µM
same,TGI,RPMI-8226 leukemia,> 32.3 µM
same,GI50,RXF 393 renal,3.25 µM
same,TGI,RXF 393 renal,> 30.7 µM
same,GI50,SF-268 CNS,3 µM
same,TGI,SF-268 CNS,> 100 µM
same,GI50,SF-295 CNS,> 31.3 µM
same,TGI,SF-295 CNS,> 100 µM
same,GI50,SF-539 CNS,> 32.6 µM
same,TGI,SF-539 CNS,> 49.2 µM
same,GI50,SK-MEL-2 melanoma,1.14 µM
same,TGI,SK-MEL-2 melanoma,9.32 µM
same,GI50,SK-MEL-28 melanoma,6.19 µM
same,TGI,SK-MEL-28 melanoma,> 44 µM
same,GI50,SK-MEL-5 melanoma,7.88 µM
same,TGI,SK-MEL-5 melanoma,> 28.2 µM
same,GI50,SK-OV-3 ovarian,3.57 µM
same,TGI,SK-OV-3 ovarian,> 100 µM
same,GI50,SN12C renal,1.01 µM
same,TGI,SN12C renal,> 43 µM
same,GI50,SNB-19 CNS,1.11 µM
same,TGI,SNB-19 CNS,> 87 µM
same,GI50,SNB-75 CNS,0.0486 µM
same,TGI,SNB-75 CNS,13.9 µM
same,GI50,SR leukemia,10 µM
same,TGI,SR leukemia,> 44.9 µM
same,GI50,SW-620 colon,0.49 µM
same,TGI,SW-620 colon,> 40.1 µM
same,GI50,T-47D breast,< 0.0166 µM
same,TGI,T-47D breast,1.48 µM
same,GI50,TK-10 renal,> 100 µM
same,TGI,TK-10 renal,> 100 µM
same,GI50,U251 CNS,> 35.3 µM
same,TGI,U251 CNS,> 74.7 µM
same,GI50,UACC-257 melanoma,> 44.7 µM
same,TGI,UACC-257 melanoma,> 76 µM
same,GI50,UACC-62 melanoma,> 31.3 µM
same,TGI,UACC-62 melanoma,> 54.1 µM
same,GI50,UO-31 renal,> 100 µM
same,TGI,UO-31 renal,> 100 µM
